Data reported in PMC12444563 (ACS Omega, 2025).

Legend:
[1] = target: T1, bovine spleen Cathepsin B (Bos taurus, UniProt P07688); test: Cathepsin B cleavage assay (UHPLC-HRMS Orbitrap analysis); assay type: biochemical; conditions: for % residual compound, Average %: 37 °C, pH 5.4, 5 μM, triplicate
T1 construct: bovine spleen Cathepsin B (SigmaAldrich C6286, ≥10 units/mg protein); purchased SigmaAldrich C6286; host or cells: bovine spleen (tissue-derived)
Experimental: The Cathepsin B cleavage assay was performed by incubating compounds 1–4 at 37 °C under gently shaking conditions in the presence of the active form of Cathepsin B. More specifically, 122.4 μL of an enzyme-activating solution (composed of 7.48 mg of L-cysteine dissolved in 2 mL of a buffer solution containing 20 mM NaOAc, 1 mM EDTA, pH 5.4 to give a final cysteine concentration of 30.88 mM) was mixed with 12.6 μL of enzyme stock solution, previously prepared by solubilization of bovine spleen Cathepsin B (SigmaAldrich C6286, ≥10 units/mg protein) in 1 mL of buffer solution (without cysteine) to give a concentration of enzyme stock solution of 12 units/mL. After the dilution, the final concentration of Cathepsin B was 1.12 u/mL. Then, the diluted enzyme solution was incubated at 37 °C for 15 min to activate Cathepsin B. After 15 min, 6 μL of 117 μM compound solution, previously prepared by diluting 5.85 μL of 1 mM stock solution of the compound in 44.15 μL of dry DMSO (giving a 117 μM solution), was added to the test tube and the cleavage assay solution was incubated at 37 °C under gentle shaking conditions. […] The solutions were then centrifuged for 10 min at 6000 rpm. Blank solutions were prepared for each compound by dilution of 6 μL of a 117 μM compound solution into 135 μL of an enzyme-activating solution. UHPLC-MS analyses were carried out using a Vanquish UHPLC System (Thermo Fisher Scientific) and Orbitrap Exploris 120 (Thermo Fisher Scientific). Thermo Scientific Xcalibur software was used to control the instruments and acquire the data. Freestyle 1.8 software was used for processing the data. UHPLC chromatographic separations were performed on a reversed-phase column Accucore C18 50 × 2.1 mm, 2.6 μm (Thermo Fisher Scientific). A gradient system was used with the mobile phase consisting of solvent A: H2O + 0.05% formic acid and solvent B: acetonitrile. The areas of the peak of compounds 1–4 in the extracted ion chromatogram were used to evaluate the kinetics of the cleavage process. The percentage of residual compound was calculated as the ratio between the areas of the peak of the full compound at the desired time point and in the blank analysis. %Residualcompound=areacompoundatthedesiredtimepoint/areacompoundintheblanksolution×100

[2] = Plasma stability assay, human plasma; assay type: in vitro ADME; conditions: both sexes, human, plasma, 37 °C, read-out: Plasma stability (matrix: human) % remaining
Experimental: (§1) The plasma stability assays were performed by Selvita SA (Krakow, Poland) following the protocol described in the Supporting Information. For the use of human plasma, consent was obtained from the subject or from the next of kin.
(§2) 9. Plasma stability assays
(§3) Protocol for full plasma assay: a stock solution of compounds 1-4 in DMSO was incubated in human (Anticoagulants: Na Heparin; Gender: Pooled; Cat. No: IPLANAH100ML; Lot: 37921; Supplier:
(§4) Innovative Research) and rat (Strain: Sprague Dawley; Anticoagulants: Na Heparin; Cat. No:
(§5) IGRTSDPLANAH100ML; Supplier: Innovative Research) plasma at a final concentration of 1 μM (final concentration of DMSO = 1 %). The samples were incubated at 37 °C with a shaking of 450 rpm. Aliquots of the samples were analyzed at time 0, 30 minutes, 2 and 4 hours by LC-MS/MS […]
(§6) The areas of the peak of the compounds 1-4 in the LC chromatogram were used to evaluate stability profile. The percentage of residual compounds 1-4 was calculated as the ratio between the area of the peak of the analyte and the area of the internal standard.
(§7) % residual compound = Area analyte ∙ 100
(§8) Table S7. LC-MS data of the stability assays in plasma extracts of compound 1.
(§9) Stability assays compound 1
(§10) Time Plasma stability Plasma stability S9 stability S9 stability
(§11) (min.) (matrix: rat) (matrix: human) Time (min.) (matrix: rat) (matrix: human) % remaining % remaining % remaining % remaining
(§12) Table S8. LC-MS data of the stability assays in plasma extracts of compound 2.
(§13) Stability assays compound 2

[3] = Liver S9 fraction stability assay, human; assay type: in vitro ADME; conditions: 37 °C
Experimental: as §1
(§14) 9. Plasma stability assays […]
(§15) Protocol for S9 fraction: a stock solution of compounds 1-4 in DMSO was incubated in human (male, pooled, commercially obtained from Xeno-tech lot: 2310104) and rat (male, pooled, commercially obtained from Xeno-tech (lot: 2210317)) S9 fraction at a final concentration of 1 μM (final concentration of DMSO = 0.5 %). The samples were incubated at 37 °C with a shaking of 450 rpm.
(§16) Aliquots of the samples were analyzed at time 0, 30 and 90 minutes by LC-MS/MS analysis.
as §6, §7, §8, §9, §10, §11, §12, §13

[4] = Plasma stability assay, rat plasma; assay type: in vitro ADME, rat (Sprague Dawley); conditions: Sprague Dawley, rat, plasma, 37 °C, read-out: Plasma stability (matrix: rat) % remaining
Experimental: as §1, §2, §3, §4, §5, §6, §7, §8, §9, §10, §11, §12, §13

[5] = Liver S9 fraction stability assay, rat; assay type: in vitro ADME; conditions: 37 °C
Experimental: as §1, §14, §15, §16, §6, §7, §8, §9, §10, §11, §12, §13

SMILES: CC(=O)O[C@H]1C(=O)[C@@]2(C)[C@H]([C@H](OC(=O)c3ccccc3)[C@]3(O)C[C@H](OC(=O)[C@H](OC(=O)N(C)CCN(C)C(=O)OCc4ccc(NC(=O)[C@H](C)NC(=O)[C@@H](NC(=O)OCC5c6ccccc6-c6ccccc65)C(C)C)cc4)[C@@H](NC(=O)c4ccccc4)c4ccccc4)C(C)=C1C3(C)C)[C@]1(OC(C)=O)CO[C@@H]1C[C@@H]2O [Compound 4, Fmoc-VA-PABC-diamine-PTX]
- % residual compound, Average % ([1]; 2 min incubation with Cathepsin B): 98.31%
- % residual compound, Average % ([1]; 15 min incubation with Cathepsin B): 89.84%
- % residual compound, Average % ([1]; 30 min incubation with Cathepsin B): 76.32%
- % residual compound, Average % ([1]; 60 min incubation with Cathepsin B): 72.91%
- % residual compound, Average % ([1]; 120 min incubation with Cathepsin B): 58.50%
- % residual compound, % R1 ([1]; replicate R1, 2 min): 105.08%
- % residual compound, % R1 ([1]; replicate R1, 15 min): 98.99%
- % residual compound, % R1 ([1]; replicate R1, 30 min): 79.84%
- % residual compound, % R1 ([1]; replicate R1, 60 min): 76.95%
- % residual compound, % R1 ([1]; replicate R1, 120 min): 61.83%
- % residual compound, % R1 ([1]; replicate R1, 240 min): 68.01%
- % residual compound, % R3 ([1]; replicate R3, 2 min): 98.31%
- % residual compound, % R3 ([1]; replicate R3, 15 min): 83.72%
- % residual compound, % R3 ([1]; replicate R3, 30 min): 80.54%
- % residual compound, % R3 ([1]; replicate R3, 60 min): 75.94%
- % residual compound, % R3 ([1]; replicate R3, 120 min): 52.91%
- % residual compound, % R3 ([1]; replicate R3, 240 min): 49.81%
- remaining at 0.5 h, 1 μM ([2]; 30 min): 101%
- remaining at 2 h, 1 μM ([2]; 120 min): 106%
- remaining at 4 h, 1 μM ([2]; 240 min (4 h)): 107%
- S9 stability (matrix: human) % remaining ([3]; 1 μM, 90 min (1.5 h)): 79.75%
- remaining at 0.5 h, 1 μM ([3]; male, human, liver S9 fraction, 30 min, read-out: S9 stability (matrix: human) % remaining): 107%
- remaining at 1.5 h, 1 μM ([3]; male, human, liver S9 fraction, 90 min (1.5 h), read-out: S9 stability (matrix: human) % remaining): 79.7%
- remaining at 0.5 h, 1 μM ([4]; 30 min): 96.1%
- remaining at 2 h, 1 μM ([4]; 120 min): 104%
- remaining at 4 h, 1 μM ([4]; 240 min (4 h)): 108%
- S9 stability (matrix: rat) % remaining ([5]; 1 μM, 90 min (1.5 h)): 81.17%
- remaining at 0.5 h, 1 μM ([5]; male, rat, liver S9 fraction, 30 min, read-out: S9 stability (matrix: rat) % remaining): 81.1%
- remaining at 1.5 h, 1 μM ([5]; male, rat, liver S9 fraction, 90 min (1.5 h), read-out: S9 stability (matrix: rat) % remaining): 81.2%
